In patent US3962230A, “P-hydroxymethylphenylacetamidocephalosporins” (SmithKline & French Laboratories, Inc., priority 1975, dated 1976) one finds ED50 and MIC data, which are given here for 2 molecules.

Several values for one entry are separate records, joined by “and”; a condition that tells them apart may be missing. Equal values may be shown once. Read-outs that look alike come from different tables or passages of the source.

Experiment [1] concerns E. coli. Put plainly: ED50 vs E. coli. The experiment is classed as in vivo. As to conditions: Escherichia coli.
Experiment [2] deals with Entero. aerog. The experiment can be described thus: MIC vs Entero. aerog. The experiment is classed as cell-based.
The subject of experiment [3] is Staph. Villaluz. Put plainly: MIC vs Staph. Villaluz. The experiment is classed as cell-based.
Experiment [4] concerns S. aureus. The experiment can be described thus: MIC vs S. aureus. The experiment is classed as cell-based. As to conditions: Staphylococcus aureus.
In experiment [5] the test system is Pseudomonas sp. Put plainly: MIC vs Pseudomonas sp. The experiment is classed as cell-based.
Experiment [6] relates to Shigella. Put plainly: MIC vs Shigella. The experiment is classed as cell-based.
The subject of experiment [7] is E. coli. Put plainly: MIC vs E. coli. Type of experiment: cell-based.
Experiment [8] deals with Serratia marc. The experiment can be described thus: MIC vs Serratia marc. The experiment is classed as cell-based.
The subject of experiment [9] is Salmonella. Put plainly: MIC vs Salmonella. The experiment is classed as cell-based.
Experiment [10] concerns Klebs. pneumo. The experiment can be described thus: MIC vs Klebs. pneumo. Type of experiment: cell-based.
Experiment [11] has as its system Klebs. pneumo. Put plainly: ED50 vs Klebs. pneumo. Type of experiment: in vivo.
The subject of experiment [12] is Strep. faecalis. The experiment can be described thus: MIC vs Strep. faecalis. Type of experiment: cell-based. The settings on record: Enterococcus faecalis.
[13] abbreviates: Escherichia coli, second column, read-out: MIC.

Take `CC1=C(C(=O)O)N2C(=O)[C@@H](NC(=O)C(N)c3ccc(CO)cc3)[C@H]2SC1` (mixture of isomers) [Compound 47216, 7β-(DL-α-Amino-p-hydroxymethylphenylacetamido)desacetoxycephalosporanic acid]: the ED50 in experiment [1] (po) was 29 mg/kg; in experiment [1] (sc), 33 mg/kg; in [11] (po) it was 50 mg/kg; in [11] (sc), over 50 mg/kg. In addition, the minimum inhibitory concentration (MIC) in experiment [2] was 50 µg/mL; in [3], 200 µg/mL; in experiment [4] (first column) it was 6.3 µg/mL; in [4] (second column) it was 25 µg/mL; in [5] it was over 200 µg/mL; in experiment [6], 25 µg/mL. For the same molecule, the MIC was 25 µg/mL in experiment [7] (Escherichia coli, first column, read-out: MIC); 50 µg/mL in experiment [7] (setting [13]); over 200 µg/mL in experiment [8]; 25 µg/mL in experiment [9]; 25 µg/mL in experiment [10] (first column); 25 µg/mL in experiment [10] (second column).

For `CC(=O)OCC1=C(C(=O)O)N2C(=O)[C@@H](NC(=O)C(N)c3ccc(CO)cc3)[C@H]2SC1` (mixture of isomers) [Compound 37316, 7β-(DL-α-amino-p-hydroxymethylphenylacetamido)cephalosporanic acid], the 50% effective dose (ED50) in experiment [1] (po) was over 50 mg/kg; in experiment [1] (sc) it was 8.7 mg/kg; in experiment [11] (po), over 50 mg/kg; in [11] (sc), 20 mg/kg. For the same molecule, the MIC in experiment [3] is 100 µg/mL; in [4] (first column), 12.5 µg/mL; in experiment [4] (second column), 6.3 µg/mL; in [5], over 200 µg/mL; in [7] it was 50 µg/mL; in experiment [7] (setting [13]), 25 µg/mL. The minimal inhibitory concentration (MIC) was over 200 µg/mL in experiment [8]; 12.5 µg/mL and 25 μg/me in [9]; 200 µg/mL in [12]; 25 µg/mL in experiment [10] (second column).

A word on the ED50: it is the dose at which the effect has come halfway, by size or by number of responders. A lower ED50 goes with an effect at a small dose. For orientation: MIC means the lowest concentration that inhibits growth of the organism.
